Consider 3 compounds from PubChem BioAssay (NCI).

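Test compounds were applied to cells in 96-well plates for 48 hours at 5 doses. At the GI50, growth is halved. At the TGI there is no net growth.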

Test systems include A498 renal; CCRF-CEM leukemia; COLO 205 colon; HCT-116 colon; HCT-15 colon; KM12 colon; MDA-MB-435; OVCAR-5 ovarian; SW-620 colon; UACC-257 melanoma.
What all share (assay): inhibition of tumour cell growth, NCI panel, 48 h

`CCN(Cc1ccc(F)cc1)c1ccc(CO)c(C)c1`: the GI50 was 216 nM with A498 renal; 19.7 µM in the test on CCRF-CEM leukemia; 5.7 µM in the test on COLO 205 colon; 2.02 µM in the test on HCT-116 colon; 8.86 µM in the test on HCT-15 colon; 19.6 µM in the test with KM12 colon. Also, the GI50 was 18 µM in the test with MDA-MB-435, 0.856 µM in the test with OVCAR-5 ovarian, 14.5 µM in the test on SW-620 colon and 2.92 µM in the test on UACC-257 melanoma. Further, the TGI with A498 renal worked out at 1.14 µM; in the test with CCRF-CEM leukemia it was 59.2 µM; with COLO 205 colon, 19 µM; in the test on HCT-116 colon, 17.6 µM; in the test on HCT-15 colon it was 39.4 µM; in the test on KM12 colon, 45.1 µM. The TGI came to 45.5 µM in the test with MDA-MB-435, 4.46 µM in the test on OVCAR-5 ovarian, 54.1 µM in the test with SW-620 colon and 15 µM in the test with UACC-257 melanoma.
With `CCOc1cc(Br)c(C(C)NC(=O)c2cccc(OC)c2)cc1OCC` (stereo not given), the GI50 in the test with A498 renal is 866 nM; in the test on CCRF-CEM leukemia, 13.6 µM; in the test with COLO 205 colon, 8.28 µM; with HCT-116 colon, 4.39 µM; with HCT-15 colon, 5.82 µM; in the test with KM12 colon, 7.32 µM. Besides, the GI50 with MDA-MB-435 is 2.16 µM; with OVCAR-5 ovarian it was 25.4 µM; in the test on SW-620 colon, 4.6 µM; in the test with UACC-257 melanoma it was 22.5 µM. Also, the TGI in the test on A498 renal was 25.5 µM; in the test on CCRF-CEM leukemia, above 100 µM; with COLO 205 colon it was 37.9 µM; in the test on HCT-116 colon, above 100 µM; in the test on HCT-15 colon it was above 100 µM; with KM12 colon, above 100 µM. The TGI with MDA-MB-435 was 6.1 µM; in the test with OVCAR-5 ovarian it was above 100 µM; with SW-620 colon it was above 100 µM; in the test on UACC-257 melanoma, above 100 µM.
For `COc1cccc(/C=N/NC(=S)NC2CC3CCC2C3)c1O` (stereo not given), the GI50 in the test with A498 renal is 3180 nM; in the test on CCRF-CEM leukemia, 6.65 µM; in the test with COLO 205 colon, 96.7 µM; with HCT-116 colon it was 4.01 µM; in the test on HCT-15 colon, 1.07 µM; in the test on KM12 colon, 26.3 µM. For the same compound, the GI50 with MDA-MB-435 was 16.1 µM; with OVCAR-5 ovarian it was 44.9 µM; in the test with SW-620 colon, 13.7 µM; in the test on UACC-257 melanoma, 15.1 µM. The TGI in the test with A498 renal was 12.9 µM; in the test with CCRF-CEM leukemia, 38.7 µM; with COLO 205 colon it was above 100 µM; in the test with HCT-116 colon, 15.8 µM; with HCT-15 colon it was above 100 µM; in the test with KM12 colon, above 100 µM. Besides, the TGI with MDA-MB-435 was 78.9 µM; in the test with OVCAR-5 ovarian, above 100 µM; with SW-620 colon, above 100 µM; in the test on UACC-257 melanoma it was 38.7 µM.
